Experimental data: ChEMBL document CHEMBL1142805, “Study on supramolecular complexing ability vis-à-vis estimation of pKa of substituted sulfonamides: dominating role of Balaban index (J)” (Bioorg Med Chem Lett, 2005)

Test: Protonation constant (Proton-ligand formation constant) was determined
Assay type: ADME

pKa: 6.66
SMILES: O=[N+]([O-])c1ccc(S(=O)(=O)Nc2ccccc2)cc1
